Among the data in patent publication US20110311661A1, “Plant Extracts and Dermatological Uses Thereof” (priority 2003, published 2011) are inhibition of contraction and IL-8 release values, retold here.

The test system of series [1] is human skin fibroblasts. The experiment in a line: Inhibition of dermal contraction, fibroblast-populated collagen I gel. Particulars: positive control at 50 μM; collagen gels up to 7 days. It counts as cell-based.
Protocol: The skin model comprises human skin fibroblasts imbedded in a collagen I matrix and provides an in vitro representation of dermal contraction resulting from tractional forces generated by fibroblasts.
The ability of exemplary plant extracts to inhibit dermal contraction was evaluated on human skin fibroblasts (Cascade Biologics, Portland, Oreg.). The cells were imbedded in a collagen I matrix to create a derm-like environment. Fibroblasts were grown in complete M106 to 80% confluence. Free-floating fibroblast-populated collagen gels were prepared in 24-well plates. […] The mix was kept on ice until distribution. The derm-like gels were allowed to polymerize for 1 hour at 37° C. in a humidified 5% CO2 atmosphere. After incubation, the gels were detached from the wells. […] FBS at a final concentration of 10% was added to each well. The plate was incubated for a maximum of 7 days at 37° C. in a humidified 5% CO2 atmosphere. All assays were performed in duplicate. Contraction was measured beginning at day 3. Contracting gels were digitally photographed and the gel areas were calculated using ImagePro software.
In series [2] the test system is human skin keratinocytes. Description: IL-8 release ELISA. It counts as cell-based. The note with it: positive control at 2.5 μM; 48 hours. On the procedure:
The amount of Interleukin-8 (IL-8) released after exposure of keratinocytes to a plant extract, as described below, can be used to quantify any possible irritation reaction to the extract.
IL-8 release was evaluated in human skin keratinocytes (Cascade Biologics, Portland, Oreg.) using the Quantikine hIL-8 ELISA kit (R&D Systems, Minneapolis, Minn.). Keratinocytes were first grown in a 96-well plate using the complete M154 (M154+HKGS from Cascade Biologics). This media was also used as control. Phorbol 12-myristate 13-acetate (PMA) (Sigma-Aldrich Canada, Oakville, Ontario) at a concentration of 2.5 μM was used as a positive control. All tested plant extracts and the controls were diluted in complete M154 at a non-cytotoxic concentration (i.e. the concentration that provided 100% viability of keratinocytes as shown in Table 10). Cells were seeded into 96-well plates at a concentration of 8×10^3 cells/well in complete M154 media. Plates were incubated for 48 hours at 37° C. in a humidified 5% CO2 atmosphere. After incubation, the medium was removed and 200 μl of sample was added to the wells (all in duplicate). […]
After incubation, each well was washed four times with wash buffer. […] The plate was then gently mixed and the absorbance read at 450 nm on the Spectrafluor Plus plate reader (Tecan). The reading was taken within 15 minutes following addition of the stop solution. […]
On the technique in general: An ELISA detects its analyte on a solid surface through an enzyme-linked reagent.

For the compound `CNC(=O)[C@H](Cc1c[nH]c2ccccc12)NC(=O)[C@@H](CC(=O)NO)CC(C)C` [GM6001], the inhibition of contraction result in series [1] is “limited, but not complete, inhibition of contraction”. For `CCCCCCCCCCCCCC(=O)O[C@@H]1[C@@H](C)[C@@]2(O)[C@@H](C=C(CO)C[C@]3(O)C(=O)C(C)=C[C@@H]23)[C@@H]2C(C)(C)[C@]12OC(C)=O` [PMA, Phorbol 12-myristate 13-acetate], in series [2], the IL-8 release result was “highest level of IL-8 release”.
